These results are taken from article PMC12073298, “Design, Synthesis, and Biological Evaluation of Naphthoquinone Salts as Anticancer Agents” (Molecules, 2025).

Test [1] concerns Survivin suppression (indirect). Further details: method as in ref 13 (a number printed in a supplementary file, which may have a reference list of its own: not looked up in the article's list). Particulars: cited from earlier work.
For test [2], the system named is human endometrial cancer cells (HEC1A). Particulars: cited from earlier work; for selectivity of parent naphthoimidazole analogues / IC50: previous study.
For the next test, the system named is GLUT1. Further details: method as in ref 5-6 (a number printed in a supplementary file, which may have a reference list of its own: not looked up in the article's list). To be noted: cited from earlier work.
For another test, the system named is Hexokinase II. Further details: method as in ref 2-4 (a number printed in a supplementary file, which may have a reference list of its own: not looked up in the article's list). To be noted: cited from earlier work.
Test [3] deals with receptor-interacting protein kinase 2 (RIPK2). On the set-up: method as in ref 11-12 (a number printed in a supplementary file, which may have a reference list of its own: not looked up in the article's list). Particulars: cited from earlier work.
Test [4] concerns normal endometrial stromal cells (MAD11). The test can be described thus: MTT cell viability assay, MAD11 cells. It is filed as cell-based, human. To be noted: Homo sapiens, MAD11, 48 h, MAD11 non-cancerous cells, n = 3 biological replicates, read-out: Mean IC50 (μM) MAD11 ± SD. How it is done:
(§1) The cytotoxic effects of the synthesized salt compounds were assessed against human endometrial cancer cells (HEC1A) and normal endometrial stromal cells (MAD11) using the MTT cell viability assay. BH10 was used as the reference compound.
(§2) Reagents and equipment: phosphate-buffered saline (PBS) (Sigma Aldrich, St. Louis, MO, USA), 10× Trypsin-EDTA solution (Sigma Aldrich, 59418C), Dulbecco’s Modified Eagle’s Medium (Sigma Aldrich), foetal bovine serum (FBS), and 100× penicillin-streptomycin solution (Sigma Aldrich P4333). The MTT reagent was prepared by dissolving 5 mg/mL MTT powder in sterile PBS, followed by filtration, whereas the MTT solvent contained 4 mM HCl and 0.1% Nonidet P-40 in isopropanol. Dimethyl sulfoxide (DMSO) was also sourced from Sigma Aldrich. Absorbance measurements were acquired using Kaleido 1.0 software coupled with an EnSight™ HH3400 Multimode Plate Reader (PerkinElmer, Waltham, MA, USA). HEC-1-A endometrial cancer cells were obtained from ATCC, while MAD11 endometrial stromal cells were provided by Dr. Hui Li (University of Virginia). MAD11 cells, derived from non-cancerous donors, were immortalized via human telomerase reverse transcriptase (hTERT).
(§3) Method: The methods were adapted from Byrne et al. (2014). Cells were cultured in DMEM supplemented with 10% FBS and 1% Pen-Strep solution (100 U/mL penicillin and 0.1 mg/mL streptomycin). Upon reaching ~70% confluence, the cells were washed with sterile PBS and detached using a 1× trypsin-EDTA solution. The cells were then resuspended in culture media, counted, and seeded into sterile 96-well tissue culture plates (2500 cells per well for MAD11; 5000 cells per well for HEC-1-A). The cells were incubated at 37 °C with 5% CO2 for 24 h prior to drug treatment. Drugs were serially diluted in culture medium to final concentrations of 100, 50, 25, 12.5, 6.3, 3.1, 1.6, and 0.8 µM per well and applied in triplicate. For compounds 7a–f and 15, as their IC₅₀ values were below 0.8 µM, an additional set of three biological replicates was conducted using a lower concentration range (500, 250, 125, 63, 31, 16, 8, and 4 nM). To minimize variations due to DMSO (vehicle), both drug dilutions and control wells received the same final concentration of DMSO. After 48 h of incubation at 37 °C with 5% CO2, cell viability was assessed by adding 20 µL/well of MTT reagent for 3 h. Supernatants were aspirated, and formazan crystals were dissolved in MTT solvent before absorbance was measured at 590/620 nm using an EnSight™ HH3400 Multimode Plate Reader. Cell viability was expressed as a percentage of the vehicle (DMSO-treated) control, with results reported as mean ± SEM from three independent experiments. IC50 values were determined using GraphPad Prism 9.

Test [5] deals with human endometrial cancer cells (HEC1A). Briefly: MTT cell viability assay, HEC1A cells. It is filed as cell-based. How it is done:
as §1, §2, §3

The subject of test [6] is Indoleamine 2,3-dioxygenase 1 (IDO1). On the set-up: method as in ref 9-10 (a number printed in a supplementary file, which may have a reference list of its own: not looked up in the article's list). To be noted: cited from earlier work.
Test [7] relates to Pyruvate Kinase M2 (PKM2). On the set-up: method as in ref 7-8 (a number printed in a supplementary file, which may have a reference list of its own: not looked up in the article's list). To be noted: cited from earlier work.
Where [8] appears, read: reported target as listed, test system not given, read-out: IC50 (Table S1).
The mark [9] stands for this setting: non-salt parent compounds, read-out: IC50 of parent naphthoimidazole analogues.
[10] abbreviates: cell line not printed here, read-out: IC50 (anticancer potency of starting materials).

Like-named read-outs stand apart in the source and are kept apart here. Bounds are passed on as bounds.

For the compound `COCCn1c2c([n+](Cc3cnccn3)c1C)C(=O)c1ccccc1C2=O` [YM155], the “Selectivity Notes (Table S1)” value in test [1] (Table S1 comparison) was 18. The IC50 in [1] (setting [8]) was 0.0137 µM.

With `Cc1nc2c(n1CCCN1CCCCC1)C(=O)c1ccccc1C2=O` [Compound 18], in [2] (non-salt parent compounds), the “selectivity of parent naphthoimidazole analogues” value was 3.59. Further, in [2] (setting [9]), the half-maximal inhibitory concentration (IC50) is 6.4 µM.

`O=C(CCc1ccc(O)cc1)c1c(O)cc(O)cc1O` [Phloretin]: in the test on GLUT1 (Table S1 comparison), the “Selectivity Notes (Table S1)” value is on record as “Limited”. For the same compound, the half-maximal inhibitory concentration (IC50) with GLUT1 (setting [8]) was approximately 2 µM.

Regarding `O=C1c2ccccc2C(=O)c2c1nc(C(F)(F)F)n2Cc1cn(CCN2CCOCC2)nn1` [Compound 16a], the “selectivity of parent naphthoimidazole analogues” value in test [2] (non-salt parent compounds) was 1.73. Moreover, the concentration for half-maximal inhibition (IC50) in test [2] (setting [9]) is 18.1 µM.

On to `O=C1c2ccccc2C(=O)c2c1nc(C(F)(F)F)n2Cc1cn(CCCN2CCCCC2)nn1` [Compound 16c], for which, in [2] (non-salt parent compounds), the “selectivity of parent naphthoimidazole analogues” value is 2.77. Moreover, the IC50 in test [2] (setting [9]) was 2.6 µM.

For `O=C(O)c1nn(Cc2ccc(Cl)cc2Cl)c2ccccc12` [Lonidamine], the “Selectivity Notes (Table S1)” value in the test with Hexokinase II (Table S1 comparison) is reported as “Low”. Besides, on Hexokinase II (setting [8]), the IC50 is 170 µM.

Regarding `O=C1c2ccccc2C(=O)c2c1nc(C(F)(F)F)n2Cc1cn(CCN2CCCCC2)nn1` [Compound 16b], in [2] (non-salt parent compounds), the “selectivity of parent naphthoimidazole analogues” value was 2.01.

Turning to `CC1=C(NCCN2CCOCC2)C(=O)c2ccccc2C1=O` [Compound 1h], the IC50 in [2] (setting [10]) was more than 40 µM.

On to `Cc1n(Cc2ccccc2)c2c([n+]1Cc1ccc(F)cc1)C(=O)c1ccccc1C2=O` [cRIPGBM], for which, in test [3] (Table S1 comparison), the “Selectivity Notes (Table S1)” value is “Variable, brain-specific”. Further, the IC50 in [3] (setting [8]) was 0.027 µM.

On to `O=C1C(Cl)=C(NCCN2CCOCC2)C(=O)c2ccccc21` [BH10, reference compound], for which the IC50 in test [4] was determined as 28.2 ± 12.2 µM; in test [5] (Homo sapiens, HEC-1-A, 48 h, HEC1A cells, MTT, 48 h, n = 3 biological replicates, read-out: Mean IC50 (μM) HEC1A ± SD) it was 11.8 ± 5.19 µM. In addition, the “Selectivity Ratio” value in test [5] (IC50 value from MAD11 cells divided by the IC50 value from HEC1A cells) came out at 2.38. Besides, in test [2] (hit compound, earlier work), the “selective toxicity (IC50 value in non-cancerous cells/IC50 value of cancer cells)” value is 2.38.

For the compound `CC(C)=CCC1=C(O)C(=O)c2ccccc2C1=O` [Lapachol], the “Selectivity Notes (Table S1)” value in [6] (Table S1 comparison) is “Limited”. For the same compound, the IC50 in [6] (setting [8]) was 25 µM.

For the compound `CC(C)=CC[C@@H](O)C1=CC(=O)c2c(O)ccc(O)c2C1=O` [Shikonin], in [7] (Table S1 comparison), the “Selectivity Notes (Table S1)” value is on record as “Low”. In test [7] (setting [8]), the concentration for half-maximal inhibition (IC50) was 19.9 µM.

On to `O=C1C=C(NCCN2CCOCC2)C(=O)c2ccccc21` [Compound 1a], for which the IC50 in test [2] (setting [10]) is more than 40 µM.
